“Also recorded” adds a separate entry of the source.
Columns and labels:
[1] = test system: patients with heart failure; settings: dietary supplementation; cited from earlier work
muscle protein synthesis = settings: cited from earlier work
[2] = test system: nitric oxide (NO) synthesis; experiment: Isotopic tracer study of plasma arginine and NO synthesis during citrulline ingestion (FIG. 5); format: in vivo, human
Experimental: FIG. 5 depicts plasma arginine responses (A) and nitric oxide (NO) synthesis rates (B) in basal period and during ingestion of 3 g of citrulline (CIT) sip ingestion over 3 hours in elderly (n=8, 77±9y, 93±4 kg) and young individuals (n=8, 27±9y, 70±5 kg).
Briefly, elderly (n=8, 77±9y, 93±4 kg) and young individuals (n=8, 27±9y, 70±5 kg) ingested 3 grams of citrulline over 3 hours and plasma arginine response and nitric oxide (NO) synthesis rates were quantified. […] Thus, oral ingestion of citrulline is very effective in increasing peripheral arginine concentration and NO synthesis in elderly subjects with heart failure.

mitochondrial biogenesis = settings: cited from earlier work
[3] = test system: carnitinepalmitoyltransferase (CPT)-1; experiment: CPT-1 activity in heart mitochondria of old animals treated with oral propionyl-L-carnitine (FIG. 8); format: in vivo, rodent; settings: old hearts, oral treatment, p<0.02, n=6
Excerpt: FIG. 8 depicts graphs showing carnitinepalmitoyltransferase (CPT)-1activity decreases with age in mitochondria (2 vs 18 mos, p<0.004).
Appropriate regulation of energy substrate metabolism not only involves relatively normal insulin sensitivity, but also adequate number and functional capacity of mitochondria. One aspect of mitochondrial function is the rate of production of mitochondrial proteins. […] In addition to adequate protein content in mitochondria, it is necessary that substrates, particularly long-chain fatty acids, are not limited in their ability to enter the mitochondria, or in their complete oxidation once inside the mitochondria. The capacity to oxidize fatty acids is reduced in patients with major inflammatory responses due to reduced carnitine palmitoyltransferase 1 (CPT1) activity. Unimpaired capacity to oxidize fatty acids is important because the energy to perform low-intensity exercise, including activities of daily living that individuals with heart failure often struggle with, is provided by the oxidation of fatty acids.

[4] = 3 g citrulline sip ingestion over 3 hours, elderly and young

## N=C(N)NCCC[C@H](N)C(=O)O [arginine]
[1]
  blood pressure: reduces blood pressure
  duration until exhaustion on a treadmill walk: increased duration until exhaustion
  right ventricular function: improves right ventricular function
Muscle protein synthesis
  effect on muscle protein synthesis when NO synthesis pharmacologically blocked: effective even when given when NO synthesis was pharmacologically blocked

## NC(=O)NCCC[C@H](N)C(=O)O [citrulline]
[2]; [4]
  nitric oxide (NO) synthesis rate: stimulated production of NO
  plasma arginine response: effectively increased the concentration of arginine in the blood
[2]; elderly with heart failure, 3 g citrulline over 3 hours
  increase in NO synthesis in elderly: physiologically significant

## CC(C)C[C@H](N)C(=O)O [leucine]
Mitochondrial biogenesis
  mitochondrial biogenesis: stimulate mitochondrial biogenesis

## CCC(=O)O[C@H](CC(=O)[O-])C[N+](C)(C)C [propionyl-L-carnitine]
[3]
  CPT-1 activity in mitochondria: can restore CPT-1 activity to that of young hearts; also recorded: restored CPT to that of young hearts
